Source: patent publication US20250222044A1, “LIMOSILACTOBACILLUS REUTERI GOLDGUT-LR99 AND APPLICATION THEREOF” (priority 2024, published 2025)
Where a SMILES comes first, the peptide text is derived from it.

system: Limosilactobacillus reuteri GOLDGUT-LR99; test: Carbon source utilization and oxidation experiment (AN Biolog micro-pore plate); format: cell-based; details: substrate utilization by the strain
Method: The AN Biolog micro-pore plate was used for measuring the utilization and oxidation conditions of different carbon sources of Limosilactobacillus reuteri GOLDGUT-LR99, the AN microplate used nutrients and biochemical reagents, and the method included the following steps: 1 mL of Limosilactobacillus reuteri GOLDGUT-LR99 bacterial liquid of the strain to be detected at the end of logarithmic growth was pipetted and centrifuged, then the supernatant was removed, the cells was washed three times with the seed liquid and suspended with 1 mL of the seed liquid, 50 μL of the suspension was taken and diluted in 10 mL of the seed liquid, the diluent was subpacked in a Biolog plate (100 μL/pore) after mixing uniformly, and the Biolog plate with the diluent was placed in 37° C. for anaerobic culture for 24 hours. After the culture was finished, OD590 and OD750 were detected by using microplate reader, the numerical values were recorded, and the utilization conditions of carbohydrate, organic acid and other substances of the Limosilactobacillus reuteri GOLDGUT-LR99 were calculated, wherein the calculation method was as follows: Y=OD590−OD750;

Molecule | utilization effect (in words)
CC(O)C(=O)O (racemic) [D,L-Lactic acid] | effectively utilize
O=C(CO)[C@@H](O)[C@H](O)[C@H](O)CO [D-Fructose] | better utilization effect
O=C(O)[C@@H](O)[C@@H](O)[C@H](O)[C@@H](O)C(=O)O [D-Glucarate] | effectively utilize
OCC1OC(OC2OC(CO)C(O)C(O)C2O)C(O)C(O)C1O [L-Trehalose] | better utilization effect
CC(C)[C@H](N)C(=O)O [L-Valine] | good utilization effect

same assay, conditions: substrate utilization by the strain, 37° C. anaerobic culture for 24 hours

Molecule | Utilization (Y=OD590−OD750)
3-Methyl-D-4-glucose | ++ (when Y > 0.1, it is shown that the strain was able to effectively utilize this substance, marked as++)
OC[C@H]1O[C@@H](O[C@@H]2[C@@H](CO)OC(O)(CO)[C@H]2O)[C@H](O)[C@@H](O)[C@H]1O (mixture of isomers) [Lactulose] | − (when Y < 0.05, it is shown that the strain was not able to utilize this substance, marked as −)
CC(O)C(=O)O (racemic) [D,L-Lactic acid] | ++ (when Y > 0.1, it is shown that the strain was able to effectively utilize this substance, marked as++)
O=P(O)(O)OCC(O)CO (racemic) [D,L-α-Glycerophosphate] | − (when Y < 0.05, it is shown that the strain was not able to utilize this substance, marked as −)
Nc1ncnc2c1ncn2[C@H]1C[C@H](O)[C@@H](CO)O1 [2′-Deoxyadenosine] | − (when Y < 0.05, it is shown that the strain was not able to utilize this substance, marked as −)
N#C[C@H](O[C@@H]1O[C@H](CO[C@@H]2O[C@H](CO)[C@@H](O)[C@H](O)[C@H]2O)[C@@H](O)[C@H](O)[C@H]1O)c1ccccc1 [Amygdalin] | − (when Y < 0.05, it is shown that the strain was not able to utilize this substance, marked as −)
OC[C@H]1O[C@@H](Oc2ccc(O)cc2)[C@H](O)[C@@H](O)[C@@H]1O [Arbutin] | − (when Y < 0.05, it is shown that the strain was not able to utilize this substance, marked as −)
OC[C@@H](O)C(O)[C@H](O)CO [D-Arabinitol] | − (when Y < 0.05, it is shown that the strain was not able to utilize this substance, marked as −)
OC[C@H]1O[C@@H](O[C@H]2[C@H](O)[C@@H](O)[C@H](O)O[C@@H]2CO)[C@H](O)[C@@H](O)[C@@H]1O [D-Cellobiose] | ++ (when Y > 0.1, it is shown that the strain was able to effectively utilize this substance, marked as++)
O=C(CO)[C@@H](O)[C@H](O)[C@H](O)CO [D-Fructose] | ++ (when Y > 0.1, it is shown that the strain was able to effectively utilize this substance, marked as++)
O=C[C@H](O)[C@@H](O)[C@@H](O)[C@H](O)CO [D-Galactose] | ++ (when Y > 0.1, it is shown that the strain was able to effectively utilize this substance, marked as++)
O=C[C@H](O)[C@@H](O)[C@@H](O)[C@H](O)C(=O)O [D-Galacturonic acid] | ++ (when Y > 0.1, it is shown that the strain was able to effectively utilize this substance, marked as++)
O=C(O)[C@@H](O)[C@@H](O)[C@H](O)[C@@H](O)C(=O)O [D-Glucarate] | ++ (when Y > 0.1, it is shown that the strain was able to effectively utilize this substance, marked as++)
O=C1O[C@H](CO)[C@@H](O)[C@H](O)[C@H]1O [D-Gluconolactone] | ++ (when Y > 0.1, it is shown that the strain was able to effectively utilize this substance, marked as++)
O=C(O)[C@H]1OC(O)[C@H](O)[C@@H](O)[C@@H]1O (stereo partly drawn) [D-Glucoronate] | ++ (when Y > 0.1, it is shown that the strain was able to effectively utilize this substance, marked as++)
O=C(O)C[C@@H](O)C(=O)O [D-Malic acid] | − (when Y < 0.05, it is shown that the strain was not able to utilize this substance, marked as −)
OC[C@@H](O)[C@@H](O)[C@H](O)[C@H](O)CO [D-Mannitol] | + (when 0.1 > Y > 0.05, it is shown that the strain was able to better utilize this substance, marked as +)
OC[C@H]1O[C@@](CO)(O[C@H]2O[C@H](CO)[C@@H](O)[C@H](O)[C@H]2O)[C@@H](O[C@H]2O[C@H](CO)[C@@H](O)[C@H](O)[C@H]2O)[C@@H]1O [D-Melezitose] | − (when Y < 0.05, it is shown that the strain was not able to utilize this substance, marked as −)
OC[C@@H](O)[C@@H](O)[C@H](O)[C@@H](O)CO [D-Sorbitol] | ++ (when Y > 0.1, it is shown that the strain was able to effectively utilize this substance, marked as++)
OC[C@H]1O[C@H](O[C@H]2O[C@H](CO)[C@@H](O)[C@H](O)[C@H]2O)[C@H](O)[C@@H](O)[C@@H]1O [D-Trehalose] | − (when Y < 0.05, it is shown that the strain was not able to utilize this substance, marked as −)
CC(C)[C@@H](C)/C=C/[C@@H](C)[C@H]1CC[C@H]2C3=CC=C4C[C@@H](O)CC[C@]4(C)[C@H]3CC[C@]12C [Ergosterol] | ++ (when Y > 0.1, it is shown that the strain was able to effectively utilize this substance, marked as++)
CC(=O)O [Ethanoic acid] | − (when Y < 0.05, it is shown that the strain was not able to utilize this substance, marked as −)
O=CO [Formic acid] | − (when Y < 0.05, it is shown that the strain was not able to utilize this substance, marked as −)

Molecule | Utilization (Y=OD590−OD750)
O=C(O)/C=C/C(=O)O [Fumaric acid] | − (when Y < 0.05, it is shown that the strain was not able to utilize this substance, marked as −)
O=P(O)(O)O[C@H]1O[C@H](CO)[C@@H](O)[C@H](O)[C@H]1O [Glucose-1-phosphate] | + (when 0.1 > Y > 0.05, it is shown that the strain was able to better utilize this substance, marked as +)
O=C[C@H](O)[C@@H](O)[C@H](O)[C@H](O)COP(=O)(O)O [Glucose-6-phosphate] | ++ (when Y > 0.1, it is shown that the strain was able to effectively utilize this substance, marked as++)
OCC(O)CO [Glycerol] | − (when Y < 0.05, it is shown that the strain was not able to utilize this substance, marked as −)
NCC(=O)N[C@@H](CCC(N)=O)C(=O)O [Glycyl-L-glutamine] (H-Gly-Gln-OH) | − (when Y < 0.05, it is shown that the strain was not able to utilize this substance, marked as −)
CSCC[C@H](NC(=O)CN)C(=O)O [Glycyl-L-methionine] | − (when Y < 0.05, it is shown that the strain was not able to utilize this substance, marked as −)
NCC(=O)N1CCC[C@H]1C(=O)O [Glycylprolline] (H-Gly-Pro-OH) | − (when Y < 0.05, it is shown that the strain was not able to utilize this substance, marked as −)
O=CC(=O)O [Glyoxylic acid] | + (when 0.1 > Y > 0.05, it is shown that the strain was able to better utilize this substance, marked as +)
OC[C@H]1O[C@@H](n2cnc3c(O)ncnc32)[C@H](O)[C@@H]1O [Inosine] | − (when Y < 0.05, it is shown that the strain was not able to utilize this substance, marked as −)
C=C(CC(=O)O)C(=O)O [Itaconic acid] | − (when Y < 0.05, it is shown that the strain was not able to utilize this substance, marked as −)
C[C@H](N)C(=O)O [L-Alanine] | − (when Y < 0.05, it is shown that the strain was not able to utilize this substance, marked as −)
C[C@H](N)C(N)=O [L-Alanineamide] | ++ (when Y > 0.1, it is shown that the strain was able to effectively utilize this substance, marked as++)
C[C@H](N)C(=O)N[C@@H](Cc1c[nH]cn1)C(=O)O [L-Alanyl-histidine] (H-Ala-His-OH) | − (when Y < 0.05, it is shown that the strain was not able to utilize this substance, marked as −)
N[C@@H](CCC(=O)O)C(=O)O [L-Glutamic acid] | − (when Y < 0.05, it is shown that the strain was not able to utilize this substance, marked as −)
C[C@H](O)C(=O)O [L-Lactic acid] | ++ (when Y > 0.1, it is shown that the strain was able to effectively utilize this substance, marked as++)
O=C(O)C[C@H](O)C(=O)O [L-Malic acid] | − (when Y < 0.05, it is shown that the strain was not able to utilize this substance, marked as −)
CSCC[C@H](N)C(=O)O [L-Methionine] | − (when Y < 0.05, it is shown that the strain was not able to utilize this substance, marked as −)
N[C@@H](Cc1ccccc1)C(=O)O [L-Phenylalanine] | − (when Y < 0.05, it is shown that the strain was not able to utilize this substance, marked as −)
C[C@H](O)[C@H](O)[C@@H](O)[C@@H](O)C=O [L-Rhamnose] | ++ (when Y > 0.1, it is shown that the strain was able to effectively utilize this substance, marked as++)
N[C@@H](CO)C(=O)O [L-Serine] | − (when Y < 0.05, it is shown that the strain was not able to utilize this substance, marked as −)
C[C@@H](O)[C@H](N)C(=O)O [L-Threonine] | − (when Y < 0.05, it is shown that the strain was not able to utilize this substance, marked as −)
OCC1OC(OC2OC(CO)C(O)C(O)C2O)C(O)C(O)C1O [L-Trehalose] | ++ (when Y > 0.1, it is shown that the strain was able to effectively utilize this substance, marked as++)
CC(C)[C@H](N)C(=O)O [L-Valine] | + (when 0.1 > Y > 0.05, it is shown that the strain was able to better utilize this substance, marked as +)
